The record followed here is patent US11236046B2, “Substituted heterocyclic sulfonamide compounds useful as TRPA1 modulators” (Genentech, Inc., priority 2013, dated 2022).

This assay deals with human TRPA1 (Homo sapiens (Human), UniProt O75762). The assay can be described thus: IC50 determination on the human TRPA1 channel, calcium fluorescence (Hamamatsu FDSS plate reader). The format is cell-based. The note with it: CHO cells expressing human TRPA1; block of cinnamaldehyde induced calcium influx; 20 minutes compound incubation; Hill coefficient fixed to 1.5; read-out: hTRPA1 AUC IC50. Here is the method: IC50s (effective concentration) of compounds on the human TRPA1 channel were determined using a Hamamatsu FDSS fluorescence plate reader. CHO cells expressing human TRPA1 were plated into 384-well plates, incubated overnight at 37 C, and loaded with BD calcium indicator dye for 1 hr at 37° C. followed by 15 minutes. at room temperature. The assay buffer was Hank's Balanced Salt Solution (HBSS) containing 20 mM HEPES (pH readjusted to 7.4) along with 0.02% BSA.
Chain of human TRPA1 (O75762 whole entry): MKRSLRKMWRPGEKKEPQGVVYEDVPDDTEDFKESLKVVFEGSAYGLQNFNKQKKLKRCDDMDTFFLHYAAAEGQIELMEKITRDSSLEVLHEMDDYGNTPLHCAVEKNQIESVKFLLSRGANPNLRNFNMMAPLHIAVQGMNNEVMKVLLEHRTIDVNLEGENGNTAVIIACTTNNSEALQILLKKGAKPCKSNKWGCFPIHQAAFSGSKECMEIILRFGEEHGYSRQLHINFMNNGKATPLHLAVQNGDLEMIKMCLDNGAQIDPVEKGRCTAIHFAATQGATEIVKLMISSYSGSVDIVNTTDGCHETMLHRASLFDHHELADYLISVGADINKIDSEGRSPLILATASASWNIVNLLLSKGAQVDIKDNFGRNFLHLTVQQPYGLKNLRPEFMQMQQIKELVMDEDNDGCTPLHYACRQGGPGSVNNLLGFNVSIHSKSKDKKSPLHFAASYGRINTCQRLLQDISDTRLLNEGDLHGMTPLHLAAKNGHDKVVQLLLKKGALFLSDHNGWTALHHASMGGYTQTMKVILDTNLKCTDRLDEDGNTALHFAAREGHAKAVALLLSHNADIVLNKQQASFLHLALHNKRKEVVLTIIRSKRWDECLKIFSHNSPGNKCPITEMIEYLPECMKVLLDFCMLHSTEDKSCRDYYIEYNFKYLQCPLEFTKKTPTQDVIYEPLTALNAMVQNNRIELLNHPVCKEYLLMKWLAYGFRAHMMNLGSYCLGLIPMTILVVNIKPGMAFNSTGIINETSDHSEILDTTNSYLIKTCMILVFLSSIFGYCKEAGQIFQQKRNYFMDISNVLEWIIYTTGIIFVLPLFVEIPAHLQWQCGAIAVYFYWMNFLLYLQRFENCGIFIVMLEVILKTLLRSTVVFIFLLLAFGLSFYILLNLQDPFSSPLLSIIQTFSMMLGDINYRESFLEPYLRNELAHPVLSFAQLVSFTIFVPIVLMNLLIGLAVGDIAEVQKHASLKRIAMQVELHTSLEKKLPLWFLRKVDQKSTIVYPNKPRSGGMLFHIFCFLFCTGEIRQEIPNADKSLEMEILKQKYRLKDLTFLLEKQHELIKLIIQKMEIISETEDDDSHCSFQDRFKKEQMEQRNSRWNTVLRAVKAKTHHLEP
Following dye load and plate cool down, compounds were added to the cells using the FDSS while monitoring fluorescence to determine whether any of the test compounds have TRPA1 agonist activity. Plates were then incubated with compound for 20 minutes at room temperature prior to adding agonist. Following this incubation, […] cinnamaldehyde was added to all wells of the plate and block of this cinnamaldehyde induced calcium influx was measured.
Fixing the Hill coefficient will generally reduce variability of the IC50 determination. The IC50s were examined by eye to make sure the MIN and MAX points were set correctly prior to validation of the results.
Turning to `O=C(NCc1cc(-c2ccc(C(F)(F)F)nc2)ncc1F)[C@@H]1C[C@@H](F)CN1S(=O)(=O)c1ccc(F)cc1` [Example 8, (2S,4R)-4-fluoro-N-((5-fluoro-6′-(trifluoromethyl)-2,3′-bipyridin-4-yl)methyl)-1-(4-fluorophenylsulfonyl)pyrrolidine-2-carboxamide], the IC50 (as a rule, the midpoint of a concentration-inhibition curve) amounted to 17 nM.

Regarding `O=C(NCc1cc(-c2ccc(C(F)(F)F)nc2)c(F)cn1)[C@@H]1C[C@@H](F)CN1S(=O)(=O)c1ccc(F)cc1` [Example 9, (2S,4R)-4-fluoro-N-((5′-fluoro-6-(trifluoromethyl)-3,4′-bipyridin-2′-yl)methyl)-1-(4-fluorophenylsulfonyl)pyrrolidine-2-carboxamide], the concentration for half-maximal inhibition (IC50) came to 20 nM.

For the compound `O=C(NCc1cc(-c2ccc(C3CC3)cc2)ncn1)[C@@H]1C[C@@H](F)CN1S(=O)(=O)c1ccc(F)cc1` [Example 10, (2S,4R)—N-((6-(4-cyclopropylphenyl)pyrimidin-4-yl)methyl)-4-fluoro-1-(4-fluorophenylsulfonyl)pyrrolidine-2-carboxamide], the concentration for half-maximal inhibition (IC50) amounted to 107 nM.

For `O=C(NCc1cc(N2CCC(C(F)(F)F)CC2)ncn1)[C@@H]1C[C@@H](F)CN1S(=O)(=O)c1ccc(F)cc1` [Example 11, (2S,4R)-4-fluoro-1-(4-fluorophenylsulfonyl)-N-((6-(4-(trifluoromethyl)piperidin-1-yl)pyrimidin-4-yl)methyl)pyrrolidine-2-carboxamide], the IC50 worked out at 434 nM.

Take `O=C(NCc1cc(C2=CCC(C(F)(F)F)CC2)ncn1)[C@@H]1C[C@@H](F)CN1S(=O)(=O)c1ccc(F)cc1` (stereo partly drawn) [Example 12, (2S,4R)-4-fluoro-1-(4-fluorophenylsulfonyl)-N-((6-(4-(trifluoromethyl)cyclohex-1-enyl)pyrimidin-4-yl)methyl)pyrrolidine-2-carboxamide]: the concentration for half-maximal inhibition (IC50) worked out at 30 nM.

For the compound `C[C@@]1(C(=O)NCc2cc(-c3ccc(C(F)(F)F)cn3)ncn2)CCCN1S(=O)(=O)c1ccc(F)cc1` [Example 14, (S)-1-(4-fluorophenylsulfonyl)-2-methyl-N-((6-(5-(trifluoromethyl)pyridin-2-yl)pyrimidin-4-yl)methyl)pyrrolidine-2-carboxamide], the 50% inhibitory concentration (IC50) was 268 nM.

Turning to `O=C(NCc1cn(-c2ccc(C(F)(F)F)nc2)nc1Cl)[C@@H]1C[C@@H](F)CN1S(=O)(=O)c1ccc(F)cc1` [Example 15, (2S,4R)—N-([3-chloro-1-[6-(trifluoromethyl)pyridin-3-yl]-1H-pyrazol-4-yl]methyl)-4-fluoro-1-[(4-fluorobenzene)sulfonyl]pyrrolidine-2-carboxamide], the IC50 is 30 nM.

For `O=C(NCc1cn(-c2ccc(C(F)(F)F)cc2)nc1Cl)[C@@H]1C[C@@H](F)CN1S(=O)(=O)c1ccc(F)cc1` [Example 16, (2S,4R)—N-([3-chloro-1-[4-(trifluoromethyl)phenyl]-1H-pyrazol-4-yl]methyl)-4-fluoro-1-[(4-fluorobenzene)sulfonyl]pyrrolidine-2-carboxamide], the IC50 was 8 nM.

As to `O=C(NCc1cn(-c2ccc(C(F)(F)F)nc2)nc1C1CC1)[C@@H]1C[C@@H](F)CN1S(=O)(=O)c1ccc(F)cc1` [Example 17, (2S,4R)—N-([3-cyclopropyl-1-[6-(trifluoromethyl)pyridin-3-yl]-1H-pyrazol-4-yl]methyl)-4-fluoro-1-[(4-fluorobenzene)sulfonyl]pyrrolidine-2-carboxamide], the half-inhibitory concentration (IC50) came to 55 nM.

Take `N#Cc1ccc(S(=O)(=O)N2C[C@H](F)C[C@H]2C(=O)NCc2cn(-c3ccc(C(F)(F)F)cc3)nc2Cl)cc1` [Example 18, (2S,4R)—N-([3-chloro-1-[4-(trifluoromethyl)phenyl]-1H-pyrazol-4-yl]methyl)-1-[(4-cyanobenzene)sulfonyl]-4-fluoropyrrolidine-2-carboxamide]: the IC50 is 49 nM.

Regarding `O=C(NCc1cc(-c2ccc(OC(F)(F)F)cc2)ncn1)[C@@H]1C[C@@H](F)CN1S(=O)(=O)c1ccc(F)cc1` [Example 21, (2S,4R)-4-fluoro-1-(4-fluorophenylsulfonyl)-N-((6-(4-(trifluoromethoxy)phenyl)pyrimidin-4-yl)methyl)pyrrolidine-2-carboxamide], the concentration for half-maximal inhibition (IC50) worked out at 21 nM.
